Two molecules from publication PMC7105882, “Plasmodium Perforin-Like Protein Pores on the Host Cell Membrane Contribute in Its Multistage Growth and Erythrocyte Senescence” (Frontiers in Cellular and Infection Microbiology, 2020) can be followed below.

The assay deals with T1, PfPLP2 (rPMD2, pan-MACPF domain of perforin-like protein 2) (Plasmodium falciparum, UniProt Q8I5P0).
T1 construct: gene PF3D7_1216700; rPMD2, recombinant His-tagged MACPF domain of PfPLP2
Nature of the assay: inhibition of erythrocyte lysis by purified rPMD2; thermal protection of purified rPMD2 (modified CETSA). Format: biochemical.

T1 sequence (Q8I5P0 entry or part of it): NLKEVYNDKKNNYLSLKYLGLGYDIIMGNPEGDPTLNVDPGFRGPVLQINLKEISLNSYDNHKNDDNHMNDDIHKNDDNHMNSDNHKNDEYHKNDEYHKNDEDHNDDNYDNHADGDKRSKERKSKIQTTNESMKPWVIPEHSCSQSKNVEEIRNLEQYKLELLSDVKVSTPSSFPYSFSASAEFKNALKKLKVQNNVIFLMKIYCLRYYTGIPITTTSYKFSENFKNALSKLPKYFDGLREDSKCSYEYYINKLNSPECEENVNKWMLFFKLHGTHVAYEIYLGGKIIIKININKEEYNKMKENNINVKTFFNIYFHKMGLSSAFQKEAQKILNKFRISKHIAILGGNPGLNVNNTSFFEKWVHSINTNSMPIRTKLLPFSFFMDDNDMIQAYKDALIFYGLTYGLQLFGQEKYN

In the case of `Cn1cc(/C=C2\NC(=S)NC2=O)c2ccccc21` [C01, (Z)-5-((1-methyl-1H-indol-3-yl)methylene)-2-thioxoimidazolidin-4-one], the “inhibition of erythrocyte lysis by purified rPMD2; thermal protection of purifie” value is “C01 and C02 could inhibit the activity of both rPMD1 and rPMD2 in the sub-micromolar range”.

Regarding `O=C1NC(=S)N/C1=C\c1csc2ccccc12` [C02, (Z)-5-(benzo[b]thiophen-3-ylmethylene)-2-thioxoimidazolidin-4-one], the “inhibition of erythrocyte lysis by purified rPMD2; thermal protection of purifie” value was “C01 and C02 could inhibit the activity of both rPMD1 and rPMD2 in the sub-micromolar range”.
